From patent US10781184B2, “Substituted benzazinones as antibacterial compounds” (GlaxoSmithKline Intellectual Property Development Limited, priority 2015, dated 2020)
Values after ≈ are worked out from the molar mass of the structure shown.

Columns and labels:
Untagged E. coli LpxC = biological target: T1, Untagged E. coli LpxC (Escherichia coli, UniProt P0A725); assay: E. coli Enzyme Assay (LpxC deacetylase, RapidFire MS); type: biochemical; details: read-out: E. coli plC50 (converted)
T1 construct: Untagged E. Coli LpxC 1-300 was expressed in E. Coli; made in house; host or cells: E. coli
T1 sequence (P0A725 1-300): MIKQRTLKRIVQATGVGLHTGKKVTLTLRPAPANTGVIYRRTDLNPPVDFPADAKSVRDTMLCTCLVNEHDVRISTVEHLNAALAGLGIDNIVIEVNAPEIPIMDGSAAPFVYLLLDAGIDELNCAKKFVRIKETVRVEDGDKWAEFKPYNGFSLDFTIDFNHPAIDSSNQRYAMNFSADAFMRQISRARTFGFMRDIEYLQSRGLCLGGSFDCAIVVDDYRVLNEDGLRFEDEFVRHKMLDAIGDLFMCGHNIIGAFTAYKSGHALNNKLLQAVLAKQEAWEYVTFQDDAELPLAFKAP
Source text: Untagged E. Coli LpxC 1-300 was expressed in E. Coli and purified with NiNTA Agarose, Superdex 200 and Mono Q columns. UDP-3-O—(R-3-hydroxymyristoyl)-N-Acetylglucosamine Substrate was obtained through a custom synthesis from Alberta Innovates Technology Futures. Method Untagged E. coli LpxC is a deacetylase, which can remove an acetyl-group from UDP-3-O—(R-3-hydroxymyristoyl)-N-Acetylglucosamine (m/z 832.1-385) to result in a product (m/z 790.3→385) that is 42 Daltons less than the original acetylated substrate. Direct detection of the deacetylated product and acetylated substrate was accomplished through an Agilent RapidFire v. 3.4/Sciex 4000 Q-Trap RF-MS instrument. […] Following a 30 minute preincubation, 20 μL of 2× substrate [2 μM final concentration; 39.984 mL buffer+16 μL of UDP-3-O—(R-3-hydroxymyristoyl)-N-Acetylglucosamine (at 10 mM Stock)] was added and incubated for 25 minutes. The reaction was quenched by the addition of 10 μL of 1N HCl. The plate was loaded onto the Agilent RapidFire v. 3.4/Sciex 4000 Q-Trap RF-MS instrument for analysis [C4 SPE cartridge, 2 mM ammonium acetate in 100 v/v water as the aqueous eluent and 5 mM ammonium acetate in 25% v/v/25% v/v/50% v/v acetonitrile/acetone/water as the organic eluent]. For dose response experiments % conversion were determined from the substrate and product extracted ion chromatogram (XIC) areas and normalized to the assay high and low controls. Normalized data were fit by ActivityBase XE using the equation y=a+(b−a)/(1+(10^x/10^c)^d), where a is the minimum % activity, b is the maximum % activity, c is the pIC50, and d is the Hill slope. ^1Langsdorf, Erik F. et al. Screening for Antibacterial Inhibitors of the UDP-3-O—(R-3-Hydroxymyristoyl)-N-Acetylglucosamine Deacetylase (LpxC) Using a High-Throughput Mass Spectroscopy Assay. See, J. Biomol. Screen. 2010, 15, 52-61. Minimum Inhibitory Concentration Assay

P. aeruginosa PA01 = assay: Minimum Inhibitory Concentration Assay (broth microdilution, CLSI); type: cell-based; details: Pseudomonas aeruginosa; strain PA01, broth microdilution; read-out: P. aeruginosa PA01 MIC
How it was run: (§1)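 CLSI broth microdilution for aerobic bacteria; compounds serially diluted in the recommended broth over a final range of 0.125–128 mcg/mL, final DMSO below 1%. MIC read as the lowest concentration inhibiting visible growth.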

K. pneumoniae 1161486 = assay: as above; type: cell-based; details: Klebsiella pneumoniae; strain 1161486, broth microdilution; read-out: K. pneumoniae 1161486 MIC
How it was run: as §1

E. coli 7623 = assay: as above; type: cell-based; details: Escherichia coli; strain 7623, broth microdilution; read-out: E. coli 7623 MIC
How it was run: as §1

[1] = biological target: T2, Untagged Pseudomonas LpxC (Pseudomonas aeruginosa, UniProt P47205); assay: P. aeruginosa Enzymatic Assay (LpxC deacetylase, RapidFire MS); type: biochemical
T2 construct: made in house; host or cells: E. coli
T2 sequence (P47205 1-303): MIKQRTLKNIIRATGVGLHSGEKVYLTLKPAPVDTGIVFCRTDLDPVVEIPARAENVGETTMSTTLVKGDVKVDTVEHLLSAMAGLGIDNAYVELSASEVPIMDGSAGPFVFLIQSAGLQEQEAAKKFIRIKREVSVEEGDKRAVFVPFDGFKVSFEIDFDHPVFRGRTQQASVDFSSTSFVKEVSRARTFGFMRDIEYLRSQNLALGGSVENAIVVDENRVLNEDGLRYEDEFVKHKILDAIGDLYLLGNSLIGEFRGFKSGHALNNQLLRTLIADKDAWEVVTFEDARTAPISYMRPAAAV
Source text: P. aeruginosa Enzymatic Assay
Untagged Pseudomonas LpxC was expressed in E. coli from Psuedomonas aeruginosa PAO1 and purified from Q-Sepharose 1 and Q-Sepharose 2 columns. UDP-3-O—(R-3-hydroxymyristoyl)-N-Acetylglucosamine Substrate was obtained through a custom synthesis from Alberta Innovates Technology Futures.
Untagged Pseudomonas LpxC is a deacetylase, which can remove an acetyl-group from UDP-3-O—(R-3-hydroxymyristoyl)-N-Acetylglucosamine to result in a product that is 42 Daltons less than the original acetylated substrate. Direct detection of the deactylated product and acetylated substrate is accomplished through an Agilent RapidFire v. 3.4/Sciex 4000 Q-Trap RF-MS instrument.
Following a 30 minute incubation, 20 μL of 2× substrate [7.680 buffer+5 uL of UDP-3-O—(R-3-hydroxymyristoyl)-N-Acetylglucosamine (at 10 mM Stock)] was added and incubated for 25 minutes. 10 uL of 1N HCl was added to quench the reaction. The plate was loaded onto the Agilent RapidFire v. 3.4/Sciex 4000 Q-Trap RF-MS instrument for analysis, using a C4 SPE cartridge and 2 mM ammonium acetate in 100 v/v water as the aqueous eluent and 5 mM ammonium acetate in […] as the organic eluent. For dose response experiments, % conversion were determined from the substrate and product analytes and normalized data were fit by ABASE/XC50 using the equation y=a+(b−a)/(1+(10^x/10^c)^d), where a is the minimum % activity, b is the maximum % activity, c is the pIC50, and d is the Hill slope. ^1Langsdorf, Erik F. et al. Screening for Antibacterial Inhibitors of the UDP-3-O—(R-3-Hydroxymyristoyl)-N-Acetylglucosamine Deacetylase (LpxC) Using a High-Throughput Mass

Row | SMILES | IC50 (Untagged E. coli LpxC) | MIC (P. aeruginosa PA01) | MIC (K. pneumoniae 1161486) | MIC (E. coli 7623) | IC50 [1]
1 | C[C@@](CCn1cnc2cc(-c3ccc(CCN4CCOCC4)cc3)ccc2c1=O)(C(=O)NO)S(C)(=O)=O [Example 42, (2R)—N-hydroxy-2-methanesulfonyl-2-methyl-4-(7-{4-[2-(morpholin-4-yl)ethyl]phenyl}-4-oxo-3,4-dihydroquinazolin-3-yl)butanamide] | 1 nM | 2 µg/mL (≈ 3.78 µM) | 0.5 µg/mL (≈ 0.946 µM) | 0.25 µg/mL (≈ 0.473 µM) | –
2 | COC(C)(C)CNCc1ccc(-c2ccc3c(=O)n(CC[C@](C)(C(=O)NO)S(C)(=O)=O)ccc3c2)c(F)c1 [Example 68, (2R)-4-[6-(2-fluoro-4-{[(2-methoxy-2-methylpropyl)amino]methyl}phenyl)-1-oxo-1,2-dihydroisoquinolin-2-yl]-N-hydroxy-2-methanesulfonyl-2-methylbutanamide] | 1 nM | 2 µg/mL (≈ 3.65 µM) | 0.5 µg/mL (≈ 0.913 µM) | 0.125 µg/mL (≈ 0.228 µM) | –
3 | CN(C)Cc1ccc(-c2ccc3c(=O)n(CC[C@](C)(C(=O)NO)S(C)(=O)=O)ccc3c2)c(F)c1F [Example 69, (2R)-4-(6-{4-[(dimethylamino)methyl]-2,3-difluorophenyl}-1-oxo-1,2-dihydroisoquinolin-2-yl)-N-hydroxy-2-methanesulfonyl-2-methylbutanamide] | 1 nM | 1 µg/mL (≈ 1.97 µM) | 1 µg/mL (≈ 1.97 µM) | 0.125 µg/mL (≈ 0.246 µM) | –
4 | C[C@@](CCN1CCc2cc(-c3ccccc3F)ccc2C1=O)(C(=O)NO)S(C)(=O)=O [Example 91, (2R)-4-[6-(2-fluorophenyl)-1-oxo-1,2,3,4-tetrahydroisoquinolin-2-yl]-N-hydroxy-2-methanesulfonyl-2-methylbutanamide] | – | 4 µg/mL (≈ 9.21 µM) | 0.5 µg/mL (≈ 1.15 µM) | 0.5 µg/mL (≈ 1.15 µM) | 1 nM
5 | Cc1ccc(-c2cc(F)c3c(=O)n(CC[C@](C)(C(=O)NO)S(C)(=O)=O)cnc3c2)cc1 [Example 17, (2R)-4-[5-fluoro-7-(4-methylphenyl)-4-oxo-3,4-dihydroquinazolin-3-yl]-N-hydroxy-2-methanesulfonyl-2-methylbutanamide] | – | 16 µg/mL (≈ 35.8 µM) | 1 µg/mL (≈ 2.23 µM) | 0.25 µg/mL (≈ 0.559 µM) | 1 nM
6 | C[C@@](CCn1ccc2cc(-c3ccc(CN4CCOCC4)cc3)ccc2c1=O)(C(=O)NO)S(C)(=O)=O [Example 64, (2R)—N-hydroxy-2-methanesulfonyl-2-methyl-4-(6-{4-[(morpholin-4-yl)methyl]phenyl}-1-oxo-1,2-dihydroisoquinolin-2-yl)butanamide] | 1 nM | 0.5 µg/mL (≈ 0.973 µM) | 0.25 µg/mL (≈ 0.487 µM) | < 0.03 µg/mL | –
7 | CCOCCNCc1ccc(-c2ccc3c(=O)n(CC[C@](C)(C(=O)NO)S(C)(=O)=O)ccc3c2)c(F)c1 [Example 72, (2R)-4-[6-(4-{[(2-ethoxyethyl)amino]methyl}-2-fluorophenyl)-1-oxo-1,2-dihydroisoquinolin-2-yl]-N-hydroxy-2-methanesulfonyl-2-methylbutanamide] | 1 nM | 1 µg/mL (≈ 1.87 µM) | 0.25 µg/mL (≈ 0.468 µM) | 0.125 µg/mL (≈ 0.234 µM) | –
8 | COc1ccc(-c2ccc3c(=O)n(CC[C@](C)(C(=O)NO)S(C)(=O)=O)cnc3c2)cc1 [Example 3, (R)—N-hydroxy-4-(7-(4-methoxyphenyl)-4-oxoquinazolin-3(4H)-yl)-2-methyl-2-(methylsulfonyl)butanamide] | 1 nM | 2 µg/mL (≈ 4.49 µM) | 0.5 µg/mL (≈ 1.12 µM) | 0.06 µg/mL (≈ 0.135 µM) | –
9 | C[C@@](CCn1ccc2cc(-c3ccc(CNC4CC4)cc3)ccc2c1=O)(C(=O)NO)S(C)(=O)=O [Example 75, (2R)-4-(6-{4-[(cyclopropylamino)methyl]phenyl}-1-oxo-1,2-dihydroisoquinolin-2-yl)-N-hydroxy-2-methanesulfonyl-2-methylbutanamide] | – | 0.25 µg/mL (≈ 0.517 µM) | 0.063 µg/mL (≈ 0.13 µM) | 0.06 µg/mL (≈ 0.124 µM) | 1 nM
